From patent US10179775B2, “Cyclooctenes for bioorthogonol reactions” (The General Hospital Corporation, priority 2014, dated 2019)
Entries after “also recorded” stand apart in the source; their conditions may differ. One block for each molecule: values may come before it.

Assays:
Assay type in all cases: physicochemical
[1] = Spontaneous isomerization in D2O or D2O:DMSO-d6 without nucleophile by 1H NMR; details: D2O:DMSO-d6 (10:1 v/v), room temperature, no nucleophile
[2] = Chemical stability in the presence of cysteine by 1H NMR; details: for Itrans/(Icis + Itrans): 37° C.; for chemical stability (change by NMR) after 16 hours: D2O:DMSO-d6 10:1 v/v at 37° C.
[3] = as above; details: 37° C.; for chemical stability / isomerization, result in words: 48 mM cysteine, 20 mM cyclooctene (s-TCO 10 mM), D2O:DMSO-d6 10:1 v/v, 0-14 h; for trans-isomer still present after 6 hours / Icis / Itrans: cysteine
Procedure: (§1) The chemical stability of the compounds of Examples 1-3 was also investigated in the presence of thiols (cysteine and mercaptoethanol) by NMR in D2O:DMSO-d6 10:1 v/v at 37° C.
(§2) The solutions were prepared by the dilution of a stock solution prepared in DMSO-d6. An end concentration of 20 mM of the cyclooctenes was used except for the s-TCO, which was used in 10 mM end concentration due to poorer solubility. A 20 mM solution could not be prepared by dilution with D2O from DMSO-d6 stock solution without the precipitation of s-TCO. Nucleophiles mercaptoethanol and cysteine were used in 48 mM end concentration. Cysteine precipitated very soon from the solution. In all cases reactions were followed by ^1H NMR.
(§3) Measurements were taken in the following intervals: mercaptoethanol: 0 h, 2 h, 11 h, 17 h and 25 h; cysteine: 0 h, 6 h and 14 h; s-TCO without nucleophile at room temperature: 1 h, 7 h and 14 h.
(§4) In each case the ratio of the integrals of the cis-double bond to the sum of the integrals of the cis- and trans-double bonds was calculate.

[4] = Solubility in DMSO/water (D2O) mixtures; details: dilution with D2O from DMSO-d6 stock solution (D2O:DMSO-d6 10:1)
Procedure: as §2
The conjugates were tested in imaging experiments (FIG. 1). An advantage of the new trans cyclooctene derivatives lies in their improved solubility in DMSO/water mixtures. Bioorthogonal imaging experiments of PARP protein in HT1080 cells (expressing PARP1 fused to mCherry) were successful with all three new compounds, (FIG. 1). The imaging experiments were performed by treating HT1080 cells (expressing PARP1 fused to mCherry) with 5 μM compound 45 (a-d), 46 (e-h) and 47 (i-l) for 30 minutes. After washing with growth media three times for 5 minutes each, cells were incubated for 30 minutes with 1 μM of CFDA-Tz for bio-orthogonal reaction inside the live cells. Following fixation, 40× images were collected by deconvolution microscopy a, e, i) bright field images; b, f, j) Olaparib-TCO/Tz-CFDA staining; c, g, k) PARP1-mCherry, d, h, l) merged images (see FIG. 1). […]

[5] = Chemical stability in the presence of mercaptoethanol by 1H NMR; set-up: Icis / Itrans: unit not given here; details: for chemical stability / isomerization, result in words: 48 mM mercaptoethanol, 20 mM cyclooctene (s-TCO 10 mM), D2O:DMSO-d6 10:1 v/v, 0-25 h; for chemical stability / isomerization, result in words / Icis / Itrans / Itrans/(Icis + Itrans): 37° C.; for Icis / Itrans / Itrans/(Icis + Itrans) / chemical stability (change by NMR) after 16 hours: mercaptoethanol; for chemical stability (change by NMR) after 16 hours: D2O:DMSO-d6 10:1 v/v at 37° C.
Procedure: as §1, §2
Measurements were taken in the following intervals: mercaptoethanol: 0 h, 2 h, 11 h, 17 h and 25 h; cysteine: 0 h, 6 h and 14 h; s-TCO without nucleophile at room temperature: 1 h, 7 h and 14 h. […]

[6] = Spontaneous isomerization in D2O or D2O:DMSO-d6 without nucleophile by 1H NMR; details: for isomerization or degradation on storage in D2O, result in words: stored in D2O, 1H NMR
Procedure: Bulk samples of the compounds described above in Examples 1-3 were stored at −20° C. for six months. […] The spontaneous isomerization took almost 5 days at 37° C. and more than 12 days at room temperature. […] With 22, a similar degree of isomerization was observed only after 63 hours at room temperature in D2O.
as §3, §4

[7] = Tetrazine kinetics with cyclooctenes (stopped-flow spectrophotometry); details: for k2 second rate constant / second order rate constant k2: reaction with benzylamino tetrazine in PBS at 37° C.
Procedure: Kinetic measurements were performed with benzylamino tetrazine and excessive amounts of cyclooctenes, using an Applied Photophysics Stopped-Flow spectrophotometer. Stock solutions of reactants in DMSO were diluted in PBS pH 7.4 to a final concentration of 1 vol % DMSO. Solutions of these reactants were loaded into the individual chambers of the instrument and equilibrated to 37° C. for 10 min. The concentration of benzylamino tetrazine after the samples were mixed by the spectrometer in a 1:1 v/v ratio was 50, 75 or 150 μM depending on the cyclooctene used. The decrease of the benzylamino tetrazine absorbance measured at 515 nm was monitored at regular intervals between 0.075 s and 10 s depending on the cyclooctene used. For trials shorter than […] (TCO-OH, OX-TCO and 3PEGMe-TCO) 1000 data points were collected and for trials longer than 1 s (EG-TCO and DO-TCO) 10000 data points were collected.
The kobs, (s^−1) values were calculated using the Prism 6 software package and the results of 6 runs were averaged for each cyclooctene concentration. […] The average kobs, values were then plotted against the concentration of cyclooctenes to yield the second order rate constant k2=(dm^3 mol^−1 s^−1) from the slope of the line with the error from the standard deviation in the slope calculated in Prism 6.

[8] = D2O:DMSO-d6 (10:1 v/v), room temperature, no nucleophile, t 1 h
[9] = D2O:DMSO-d6 (10:1 v/v), room temperature, no nucleophile, t 7 h
[10] = D2O:DMSO-d6 (10:1 v/v), room temperature, no nucleophile, t 14 h

Icis ([1]; t 0 h): 0
Itrans ([1]; t 0 h): 2
Itrans/(Icis + Itrans) ([1]; t 1 h): 0.985
Itrans/(Icis + Itrans) ([1]; t 7 h): 0.971
Itrans/(Icis + Itrans) ([1]; t 14 h): 0.952
Itrans/(Icis + Itrans) ([2]; t 0 h): 0.913
Itrans/(Icis + Itrans) ([2]; t 6 h): 0.652
Itrans/(Icis + Itrans) ([2]; t 14 h): 0.192
trans-isomer still present after 6 hours [3]: 65%
Icis ([3]; t 0 h): 0.19
Itrans ([3]; t 0 h): 2
Icis ([3]; t 6 h): 1.07
Itrans ([3]; t 6 h): 2
Icis ([3]; t 14 h): 8.42
Itrans ([3]; t 14 h): 2
concentration preparable without precipitation [4]: < 20 mM
Icis ([5]; t 0 h): 1.19
Itrans ([5]; t 0 h): 2
Itrans/(Icis + Itrans) ([5]; t 0 h): 0.627
Icis ([5]; t 2 h): 87
Itrans ([5]; t 2 h): 2
Itrans/(Icis + Itrans) ([5]; t 2 h): 0.023
Icis ([5]; t 11 h): 2
Itrans ([5]; t 11 h): 0
Itrans/(Icis + Itrans) ([5]; t 11 h): 0
Icis ([5]; t 17 h): 2
Itrans ([5]; t 17 h): 0
Itrans/(Icis + Itrans) ([5]; t 17 h): 0
Icis ([5]; t 25 h): 2
Itrans ([5]; t 25 h): 0
Itrans/(Icis + Itrans) ([5]; t 25 h): 0
isomerization after 14 hours ([6]; D2O:DMSO-d6 10:1, room temperature, 14 hours): at least 5%
Itrans/(Icis + Itrans) ([6]; D2O:DMSO-d6 (10:1 v/v), room temperature, no nucleophile, t 0 h): 1
Icis [6, 8]: 0.03
Itrans [6, 8]: 2
Icis [6, 9]: 0.06
Itrans [6, 9]: 2
Icis [6, 10]: 0.1
Itrans [6, 10]: 2
SMILES: OCC1C2CCC=CCCC12 (centres unmarked) [s-TCO, reference compound]
chemical stability / isomerization, result in words [3]: isomerization of the trans isomer to the cis isomer; also recorded: isomerization of the trans-isomer to the cis-isomer; also recorded: undergo isomerization/decomposition
chemical stability / isomerization, result in words [5]: isomerization of the trans isomer to the cis isomer; also recorded: occurred together with unidentified side reactions; also recorded: undergo isomerization/decomposition; also recorded: most of the s-TCO disappeared within the first two hours

Itrans/(Icis + Itrans) ([2]; t 0 h): 1
Itrans/(Icis + Itrans) ([2]; t 6 h): 0
Itrans/(Icis + Itrans) ([2]; t 14 h): 0
trans-isomer still present after 6 hours [3]: no trans-compound was present
Icis ([3]; t 0 h): 0
Itrans ([3]; t 0 h): 2
Icis ([3]; t 6 h): 2
Itrans ([3]; t 6 h): 0
Icis ([3]; t 14 h): 2
Itrans ([3]; t 14 h): 0
Icis ([5]; t 0 h): 0
Itrans ([5]; t 0 h): 2
Itrans/(Icis + Itrans) ([5]; t 0 h): 1
Icis ([5]; t 2 h): 0.18
Itrans ([5]; t 2 h): 2
Itrans/(Icis + Itrans) ([5]; t 2 h): 0.917
Icis ([5]; t 11 h): 0.38
Itrans ([5]; t 11 h): 2
Itrans/(Icis + Itrans) ([5]; t 11 h): 0.840
Icis ([5]; t 17 h): 0.42
Itrans ([5]; t 17 h): 2
Itrans/(Icis + Itrans) ([5]; t 17 h): 0.826
Icis ([5]; t 25 h): 0.79
Itrans ([5]; t 25 h): 2
Itrans/(Icis + Itrans) ([5]; t 25 h): 0.717
time the spontaneous isomerization to the cis isomer took ([6]; D2O, 37° C.): ~5 days
time after which a similar degree of isomerization (at least 5%) was observed ([6]; D2O, room temperature): 63 h
time the spontaneous isomerization to the cis isomer took ([6]; D2O, room temperature): more than 12 days
isomerization or degradation on storage in D2O, result in words [6]: slow isomerization to the cis isomer
SMILES: OCCOC1/C=C/COCOC1 (centres unmarked) [DO-TCO, (E)-2-((5,8-dihydro-4H-1,3-dioxocin-5-yl)oxy)ethanol]
chemical stability / isomerization, result in words [3]: isomerization of the trans isomer to the cis isomer; also recorded: isomerization of the trans-isomer to the cis-isomer; also recorded: undergo isomerization/decomposition; also recorded: much faster than that of s-TCO
k2 second rate constant [7]: 332 ± 3 dm^3 · mol^−1 · s^−1
second order rate constant k2 [7]: 332±3 dm^3 mol^−1 s^−1

chemical stability (change by NMR) after 16 hours [2]: did not show any change
chemical stability (change by NMR) after 16 hours [5]: did not show any change
isomerization or degradation on storage in D2O, result in words [6]: no isomerization or degradation
SMILES: O=C1OC2CC/C=C/CCC2N1CCOCCO (centres unmarked) [OX-TCO, (E)-3-(2-(2-hydroxyethoxy)ethyl)-3,3a,4,5,9,9a-hexahydrocycloocta[d]oxazol-2(8H)-one]
chemical stability / isomerization, result in words [3]: did not show any change; also recorded: relatively stable
chemical stability / isomerization, result in words [5]: did not show any change; also recorded: relatively stable
weighted average second order rate constant k2 ([7]; 4:1 isomer mixture, benzylamino tetrazine in PBS at 37° C.): 29242±636 dm^3 mol^−1 s^−1
k2 second rate constant [7]: 29242 ± 636 dm^3 · mol^−1 · s^−1

Icis ([5]; t 0 h): 0.17
Itrans ([5]; t 0 h): 2
Itrans/(Icis + Itrans) ([5]; t 0 h): 0.922
Icis ([5]; t 2 h): 0.48
Itrans ([5]; t 2 h): 2
Itrans/(Icis + Itrans) ([5]; t 2 h): 0.807
Icis ([5]; t 11 h): 0.66
Itrans ([5]; t 11 h): 2
Itrans/(Icis + Itrans) ([5]; t 11 h): 0.752
Icis ([5]; t 17 h): 0.69
Itrans ([5]; t 17 h): 2
Itrans/(Icis + Itrans) ([5]; t 17 h): 0.744
Icis ([5]; t 25 h): 0.74
Itrans ([5]; t 25 h): 2
Itrans/(Icis + Itrans) ([5]; t 25 h): 0.730
isomerization or degradation on storage in D2O, result in words [6]: no isomerization or degradation
SMILES: COCCOCCOCCOC1CC/C=C/CCC1O (centres unmarked) [3PEGMe-TCO, (E)-8-(2-(2-(2-methoxyethoxy)ethoxy)ethoxy)cyclooct-4-enol]
chemical stability / isomerization, result in words [3]: did not show any degradation; also recorded: relatively stable

chemical stability (change by NMR) after 16 hours [2]: did not show any change
chemical stability / isomerization, result in words ([5]; listed as TCO): isomerized very fast
chemical stability (change by NMR) after 16 hours [5]: did not show any change
isomerization or degradation on storage in D2O, result in words [6]: no isomerization or degradation
SMILES: OC1CC/C=C/CCC1 (stereo not drawn) [TCO-OH, trans-cyclooctenol, reference compound]
chemical stability / isomerization, result in words [3]: did not show any change; also recorded: relatively stable
chemical stability / isomerization, result in words [5]: did not show any change; also recorded: relatively stable
k2 second rate constant [7]: 33585 ± 326 dm^3 · mol^−1 · s^−1

chemical stability (change by NMR) after 16 hours [2]: did not show any change
chemical stability (change by NMR) after 16 hours [5]: did not show any change
SMILES: OCCOC1/C=C/CCCCC1 (centres unmarked) [EG-TCO, (E)-2-(cyclooct-2-en-1-yloxy)ethanol]
chemical stability / isomerization, result in words [3]: did not show any change; also recorded: relatively stable
chemical stability / isomerization, result in words [5]: did not show any change; also recorded: relatively stable
k2 second rate constant [7]: 600 ± 6 dm^3 · mol^−1 · s^−1
second order rate constant k2 [7]: 600±6 dm^3 mol^−1 s^−1
